{"source": "patent US20080176914A1", "about": "“CRYSTAL FORM OF 2-(3-FLUORO-4-HYDROXYPHENYL)-7-VINYL-1,3-BENZOXAZOL-5-OL” (WYETH, priority 2006, published 2008)", "experiment": "Conversion of the crystal form on suspending and stirring in solvent at room temperature", "format": "physicochemical", "excerpt": "The anhydrate crystal form (Form B) can be converted to other crystal forms under suitable conditions.", "data": [{"smiles": "C=Cc1cc(O)cc2nc(-c3ccc(O)c(F)c3)oc12", "note": "[Form B, 2-(3-fluoro-4-hydroxyphenyl)-7-vinyl-1,3-benzoxazol-5-ol]", "values": [{"measurement": "crystal form obtained after suspending and stirring in ethanol", "setting": "suspended and stirred in ethanol at room temperature for three days", "result": "another anhydrate crystal form is obtained"}, {"measurement": "crystal form obtained after suspending and stirring in methanol", "setting": "suspended and stirred in methanol at room temperature for one day", "result": "another anhydrate crystal form is obtained"}, {"measurement": "crystal form obtained after suspending and stirring in water", "setting": "suspended and stirred in water at room temperature for three days", "result": "a hydrate crystal form is obtained"}]}]}
